Tests used:
[1] = target: Poly [ADP-ribose] polymerase 2 (Homo sapiens, UniProt Q9UGN5); test: Inhibition of human recombinant PARP2 expressed in Escherichia coli BL21(DE3) incubated for 1 hr by ELISA assay
[2] = target: Poly [ADP-ribose] polymerase 1 (Homo sapiens, UniProt P09874); test: Inhibition of human recombinant PARP1 expressed in Escherichia coli BL21(DE3) incubated for 1 hr by ELISA assay
MX1 [3] = test: Cytotoxicity against human MX1 cells […] assessed as inhibition of cell growth measured after 72 hrs by MTT assay; assay type: functional, cell-based; conditions: MX1, 72 h
MX1 [4] = test: Potentiation factor, ratio of IC50 for cytotoxicity against human MX1 cells to IC50 for cytotoxicity against human MX1 cells in presence of temozolomide; assay type: functional

Chain of Poly [ADP-ribose] polymerase 1 (P09874 whole entry): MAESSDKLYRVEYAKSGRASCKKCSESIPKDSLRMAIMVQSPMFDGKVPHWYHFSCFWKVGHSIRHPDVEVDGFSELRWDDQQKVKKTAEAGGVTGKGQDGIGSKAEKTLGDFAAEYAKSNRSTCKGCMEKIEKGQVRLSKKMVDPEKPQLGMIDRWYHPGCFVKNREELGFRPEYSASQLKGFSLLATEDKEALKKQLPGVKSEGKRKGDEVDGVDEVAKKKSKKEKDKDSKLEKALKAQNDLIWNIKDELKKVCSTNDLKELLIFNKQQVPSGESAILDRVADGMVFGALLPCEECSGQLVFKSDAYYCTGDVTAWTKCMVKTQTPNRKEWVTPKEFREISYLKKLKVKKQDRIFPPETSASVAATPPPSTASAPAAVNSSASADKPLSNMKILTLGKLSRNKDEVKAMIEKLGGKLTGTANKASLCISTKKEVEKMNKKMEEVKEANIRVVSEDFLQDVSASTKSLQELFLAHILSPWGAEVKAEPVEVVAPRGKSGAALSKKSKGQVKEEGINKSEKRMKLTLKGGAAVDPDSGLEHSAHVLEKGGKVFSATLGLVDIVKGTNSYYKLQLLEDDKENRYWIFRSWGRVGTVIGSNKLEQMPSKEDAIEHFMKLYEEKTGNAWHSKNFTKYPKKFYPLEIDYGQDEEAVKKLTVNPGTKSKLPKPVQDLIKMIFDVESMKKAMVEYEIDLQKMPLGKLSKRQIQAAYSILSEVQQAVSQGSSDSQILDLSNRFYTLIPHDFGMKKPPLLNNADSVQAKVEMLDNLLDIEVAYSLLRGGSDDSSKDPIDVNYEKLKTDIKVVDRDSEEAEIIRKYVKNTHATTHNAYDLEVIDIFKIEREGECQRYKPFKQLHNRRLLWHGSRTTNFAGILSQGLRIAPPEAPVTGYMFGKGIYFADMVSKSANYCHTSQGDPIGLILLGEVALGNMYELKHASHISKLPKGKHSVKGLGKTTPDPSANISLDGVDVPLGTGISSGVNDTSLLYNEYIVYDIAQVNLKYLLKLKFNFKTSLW
Chain of Poly [ADP-ribose] polymerase 2 (Q9UGN5 whole entry): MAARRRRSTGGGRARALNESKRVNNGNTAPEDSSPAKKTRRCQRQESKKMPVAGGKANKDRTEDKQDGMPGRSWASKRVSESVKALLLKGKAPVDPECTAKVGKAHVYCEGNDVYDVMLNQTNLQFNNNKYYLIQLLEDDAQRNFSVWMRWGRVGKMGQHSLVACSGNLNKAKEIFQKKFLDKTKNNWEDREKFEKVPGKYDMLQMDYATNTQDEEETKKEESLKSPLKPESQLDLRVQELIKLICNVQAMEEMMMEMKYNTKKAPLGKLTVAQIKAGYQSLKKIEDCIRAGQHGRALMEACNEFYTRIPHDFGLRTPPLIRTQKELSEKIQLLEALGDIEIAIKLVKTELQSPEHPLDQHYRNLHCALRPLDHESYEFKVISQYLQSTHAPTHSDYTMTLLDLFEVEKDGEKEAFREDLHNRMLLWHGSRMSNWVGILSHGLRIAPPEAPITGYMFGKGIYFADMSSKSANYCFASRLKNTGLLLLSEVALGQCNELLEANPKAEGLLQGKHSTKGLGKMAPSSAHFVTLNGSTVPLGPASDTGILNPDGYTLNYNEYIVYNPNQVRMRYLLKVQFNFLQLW

Row | IC50 [1] | IC50 [2] | SMILES | IC50 (MX1 [3]) | PF50 (MX1 [4])
1 | 5.62 nM | 3.81 nM | CN1CCN(C(=O)c2cc(Cn3c(=O)[nH]c(=O)c4ccccc43)ccc2F)CC1=O | 51 nM | 1.18
2 | 0.26 nM | 4.92 nM | CC(C1CCCCC1)N1CCN(C(=O)c2cc(Cn3c(=O)[nH]c(=O)c4ccccc43)ccc2F)CC1=O (configuration not stated) | 3.65 nM | >10
3 | 9.2 nM | 17.2 nM | O=C(c1cc(Cn2c(=O)[nH]c(=O)c3ccccc32)ccc1F)N1CC(=O)N2CCCC2C1 (configuration not stated) | 46.1 nM | >10
4 | 6.31 nM | 17.1 nM | O=C1CN(C(=O)c2cc(Cn3c(=O)[nH]c(=O)c4ccccc43)ccc2F)CCN1CCCO | 60.2 nM | 4.38
5 | 6.75 nM | 2.39 nM | CN(C)CCN1CCN(C(=O)c2cc(Cn3c(=O)[nH]c(=O)c4ccccc43)ccc2F)CC1=O | > 100 nM | 
6 | 0.33 nM | 2.85 nM | O=C(c1cc(Cn2c(=O)[nH]c(=O)c3ccccc32)ccc1F)N1CCN(C2CCCCC2)C(=O)C1 | 5.79 nM | >10
7 | 1.22 nM | 7.59 nM | CCN1CCN(C(=O)c2cc(Cn3c(=O)[nH]c(=O)c4ccccc43)ccc2F)CC1=O | 23.3 nM | >10
8 | 0.49 nM | 2.72 nM | CCCCN1CCN(C(=O)c2cc(Cn3c(=O)[nH]c(=O)c4ccccc43)ccc2F)CC1=O | 20 nM | >10
9 | 1.72 nM | 5.06 nM | CC(C)N1CCN(C(=O)c2cc(Cn3c(=O)[nH]c(=O)c4ccccc43)ccc2F)CC1=O | 30.9 nM | >10
10 | 0.71 nM | 4.18 nM | C=CCN1CCN(C(=O)c2cc(Cn3c(=O)[nH]c(=O)c4ccccc43)ccc2F)CC1=O | > 100 nM | 
11 | 0.33 nM | 3.45 nM | CC(C)(C)CN1CCN(C(=O)c2cc(Cn3c(=O)[nH]c(=O)c4ccccc43)ccc2F)CC1=O | 23.2 nM | >10
12 | 2.63 nM | 9.75 nM | O=C1CN(C(=O)c2cc(Cn3c(=O)[nH]c(=O)c4ccccc43)ccc2F)CCN1CC1CC1 | 14.9 nM | >10
13 | 0.38 nM | 4.68 nM | CC(C)CN1CCN(C(=O)c2cc(Cn3c(=O)[nH]c(=O)c4ccccc43)ccc2F)CC1=O | 22.4 nM | >10
14 | 3.48 nM | 11.8 nM | CCCN1CCN(C(=O)c2cc(Cn3c(=O)[nH]c(=O)c4ccccc43)ccc2F)CC1=O | 16.5 nM | >10
15 | 2.92 nM | 15.5 nM | C#CCN1CCN(C(=O)c2cc(Cn3c(=O)[nH]c(=O)c4ccccc43)ccc2F)CC1=O | 28.5 nM | >10
16 | 1.32 nM | 3.02 nM | CCC(C)CN1CCN(C(=O)c2cc(Cn3c(=O)[nH]c(=O)c4ccccc43)ccc2F)CC1=O (configuration not stated) | 10.4 nM | >10
17 | 0.44 nM | 3.76 nM | CCC(C)N1CCN(C(=O)c2cc(Cn3c(=O)[nH]c(=O)c4ccccc43)ccc2F)CC1=O (configuration not stated) | 33.9 nM | >10
18 | 1.88 nM | 4.33 nM | O=C1CN(C(=O)c2cc(Cn3c(=O)[nH]c(=O)c4ccccc43)ccc2F)CCN1 | > 100 nM | 3.23
19 | 2.67 nM | 8.88 nM | COC(=O)CN1CCN(C(=O)c2cc(Cn3c(=O)[nH]c(=O)c4ccccc43)ccc2F)CC1=O | 45 nM | 4.64
20 | 0.92 nM | 3.03 nM | CC(C)CCN1CCN(C(=O)c2cc(Cn3c(=O)[nH]c(=O)c4ccccc43)ccc2F)CC1=O | 12.4 nM | >10
21 | 1.87 nM | 3.79 nM | O=C1CN(C(=O)c2cc(Cn3c(=O)[nH]c(=O)c4ccccc43)ccc2F)CCN1CC(F)(F)F | 18.6 nM | >10

From ChEMBL document CHEMBL5370623, “Discovery of Quinazoline-2,4(1H,3H)-dione Derivatives Containing a Piperizinone Moiety as Potent PARP-1/2 Inhibitors─Design, Synthesis, In Vivo Antitumor Activity, and X-ray Crystal Structure Analysis” (J Med Chem, 2023)
